Source: patent US4837149A, “Novel saframycin A derivatives and process for producing the same” (priority 1984, dated 1989)
In brackets after ≈: the same amount, converted by molar mass. Like-named read-outs stand apart in the source and are kept apart here.

Columns and labels:
[1] = test system: Staphylococcus aureus 209 P; test: Antibacterial spectra in vitro, MIC on agar plates; assay type: cell-based; details: IFM No. 2014, nutrient agar, 37° C., 24 hours
[2] = test system: Staphylococcus aureus Smith; test: Antibacterial spectra in vitro, MIC on agar plates; assay type: cell-based; details: IFM No. 2018, nutrient agar, 37° C., 24 hours
Staphylococcus albus = test: Antibacterial spectra in vitro, MIC on agar plates; assay type: cell-based; details: IFM No. 2013, nutrient agar, 37° C., 24 hours
Staphylococcus citreus = test: Antibacterial spectra in vitro, MIC on agar plates; assay type: cell-based; details: IFM No. 2025, nutrient agar, 37° C., 24 hours
Sarcina lutea = test: Antibacterial spectra in vitro, MIC on agar plates; assay type: cell-based; details: Micrococcus luteus; IFM No. 2066; nutrient agar; 37° C., 24 hours
[3] = test system: Bacillus subtilis PCI 219; test: Antibacterial spectra in vitro, MIC on agar plates; assay type: cell-based; details: PCI219, IFM No. 2060, nutrient agar, 37° C., 24 hours
Bacillus cereus = test: Antibacterial spectra in vitro, MIC on agar plates; assay type: cell-based; details: IFM No. 2058, nutrient agar, 37° C., 24 hours
Escherichia coli F1 = test: Antibacterial spectra in vitro, MIC on agar plates; assay type: cell-based; details: IFM No. 3002, nutrient agar, 37° C., 24 hours
Salmonella typhimurium = test: Antibacterial spectra in vitro, MIC on agar plates; assay type: cell-based; details: Salmonella enterica, IFM No. 3023, nutrient agar, 37° C., 24 hours
Shigella dysenteria = test: Antibacterial spectra in vitro, MIC on agar plates; assay type: cell-based; details: IFM No. 3024, nutrient agar, 37° C., 24 hours
Klebsiella pneumoniae = test: Antibacterial spectra in vitro, MIC on agar plates; assay type: cell-based; details: IFM No. 3008, nutrient agar, 37° C., 24 hours
Serratia marcescens = test: Antibacterial spectra in vitro, MIC on agar plates; assay type: cell-based; details: IFM No. 3029, nutrient agar, 37° C., 24 hours
[4] = test system: Corynebacterium diphtheria; test: Antibacterial spectra in vitro, MIC on agar plates; assay type: cell-based; details: IFM No. 2056, glucose (0.5%) agar, 37° C., 24 hours
Method: (§1) With respect to the antimicrobial activities of saframycins Y3 and Yd-1, the antibacterial spectra in vitro, as expressed by their minimum inhibitory concentrations (MIC), are shown in Table 2:
(§2) Medium: A=nutrient agar, B=glucose (0.5%) agar, C=Sabouraud's glucose (2%) agar.
(§3) All MIC-values shown in Table 2 are obtained from cultures on agar plates containing varying amounts of the antibiotic tested at temperatures of 37° C. after an incubation period of 24 hours (bacteria), 48 hours (fungi except candida albicans, 37° C., 48 hours, Trichophyton mentagrophytes.

Mycobacterium sp. 607 = test: Antibacterial spectra in vitro, MIC on agar plates; assay type: cell-based; details: IFM No. 2051, glucose (0.5%) agar, 37° C., 24 hours
Method: as §1, §2, §3

Pseudomonas aeruginosa = test: Antibacterial spectra in vitro, MIC on agar plates; assay type: cell-based; details: IFM No. 3011, nutrient agar, 37° C., 24 hours
Method: as §1, §2, §3

[5] = test system: Streptococcus pyogenes Cook; test: Antibacterial spectra in vitro, MIC on agar plates; assay type: cell-based; details: IFM No. 2003, glucose (0.5%) agar, 37° C., 24 hours
Method: as §1, §2, §3

Streptococcus faecalis = test: Antibacterial spectra in vitro, MIC on agar plates; assay type: cell-based; details: Enterococcus faecalis; IFM No. 2001; glucose (0.5%) agar; 37° C., 24 hours
[6] = test system: Streptococcus pyogenes 090 R; test: Antibacterial spectra in vitro, MIC on agar plates; assay type: cell-based
Streptococcus salivarius = test: Antibacterial spectra in vitro, MIC on agar plates; assay type: cell-based; details: IFM No. 2010, glucose (0.5%) agar, 37° C., 24 hours
Corynebacterium xeriosis = test: Antibacterial spectra in vitro, MIC on agar plates; assay type: cell-based; details: IFM No. 2057, glucose (0.5%) agar, 37° C., 24 hours
Mycobacterium phlei = test: Antibacterial spectra in vitro, MIC on agar plates; assay type: cell-based; details: Mycolicibacterium phlei; IFM No. 2052; glucose (0.5%) agar; 37° C., 24 hours
Mycobacterium avium = test: Antibacterial spectra in vitro, MIC on agar plates; assay type: cell-based; details: IFM No. 2054, glucose (0.5%) agar, 37° C., 24 hours
Nocardia asteroides = test: Antibacterial spectra in vitro, MIC on agar plates; assay type: cell-based; details: IFM No. 0006, glucose (0.5%) agar, 37° C., 24 hours
Brucella abortus = test: microbe, parasite or virus in culture; assay type: cell-based; details: 24 h
Candida albicans 7N = test: Antimicrobial (fungi) MIC on agar plates; assay type: cell-based; details: IFM No. 40009, Sabouraud's glucose (2%) agar
Saccharomyces cerevisiae = test: Antimicrobial (fungi) MIC on agar plates; assay type: cell-based; details: IFM No. 40025, Sabouraud's glucose (2%) agar, 48 hours
Rhodotorula glutinus = test: Antimicrobial (fungi) MIC on agar plates; assay type: cell-based; details: IFM No. 40057, Sabouraud's glucose (2%) agar, 48 hours
Aspergillus niger = test: Antimicrobial (fungi) MIC on agar plates; assay type: cell-based; details: IFM No. 40606, Sabouraud's glucose (2%) agar, 48 hours
Aspergillus oryzae = test: Antimicrobial (fungi) MIC on agar plates; assay type: cell-based; details: IFM No. 40601, Sabouraud's glucose (2%) agar, 48 hours
Penicillium expansum = test: Antimicrobial (fungi) MIC on agar plates; assay type: cell-based; details: IFM No. 40618, Sabouraud's glucose (2%) agar, 48 hours
[7] = test system: Trichophyton mentagrophytes; test: Antimicrobial (fungi) MIC on agar plates; assay type: cell-based; details: IFM No. 40134, Sabouraud's glucose (2%) agar
mouse leukaemia L 1210 = test: Cytotoxic effect in cell cultures of mouse leukaemia L 1210; assay type: cell-based; details: L1210, read-out: ED50 (cytotoxic effect)
[8] = test system: Ehrlich ascitic tumor cells; test: Survival of ICR mice inoculated with Ehrlich ascitic tumor cells; assay type: in vivo; details: for mice survived: 20 micrograms/mouse/day intraperitoneally for 7 days, from 24 hours after inoculation, 10 mice per group
Method: In another test, ICR mice (10 mice per group) were inoculated with Ehrlich ascitic tumor cells. Twenty-four hours after the inoculation the dose of 20 micrograms/mouse/day of saframycin Y3 or 20 micrograms/mouse/day of saframycin Yd-1 was administered intraperitoneally. The administration was continued for 7 days. […] When 5 micrograms/mouse/day of saframycin Y3 or 4 micrograms/mouse/day of Yd-1 were administered, 60-70% of the mice survived for 20 days or more.

mouse leukemia L 1210 = test: Effect against mouse leukemia L 1210 in BDF1 mice (US National Cancer Research Institute procedure); assay type: in vivo; details: for survival effect compared with critical level of effectiveness prescribed by the research institute: 10 micrograms/mouse/day intraperitoneally for one week; for survival effect [T/C×100]: 10 micrograms/mouse/day intraperitoneally for one week from 24 hours after transplantation
Text: In another test, the effect of saframycins Y3 and Yd-1 against mouse leukemia L 1210 was examined by using BDF1 mice according to the procedure as established by the US National Cancer Research Institute.

Lewis lung cancer [9] = test: Effect against metastasis of Lewis lung cancer (foot pad inoculation, leg amputation); assay type: in vivo, BDF1 mice; details: 40 micrograms/mouse/day for 10 days i.p.; seven days after last administration; control: abundant metastasis
Method: In another test, the effect of saframycin Yd-1 against metastasis of Lewis lung cancer was determined in the following manner:
The foot pads of the left hind legs of BDF1 mice having a body weight of 20 g were subcutaneously inoculated with 1.5×10^5 Lewis lung cancer cells. After seven days the legs were amputated.
(§4) A physiological sodium chloride solution was administered intraperitoneally to the control group while saframycin Yd-1 was given at a dose of 40 micrograms/mouse/day for 10 days i.p. to the group to be treated. Seven days after the last administration, the mice were sacrificed and the spread of metastasis in the lungs was compared. […] In anther experiment, the effect against Lewis lung cancer was evaluated according to the guidelines of the USA Cancer Institute (R. L. Geran et al. Cancer Chemotherapy Reports, Part 3, Vol. 3, No. 2 (1972)).

Lewis lung cancer [10] = test: Effect against Lewis lung cancer according to guidelines of the USA Cancer Institute; assay type: in vivo; details: 20 micrograms/mouse/day intraperitoneally for 10 days
Method: as §4

SMILES	MIC [1]	MIC [2]	MIC (Staphylococcus albus)	MIC (Staphylococcus citreus)	MIC (Sarcina lutea)	MIC [3]	MIC (Bacillus cereus)	MIC (Escherichia coli F1)	MIC (Salmonella typhimurium)	MIC (Shigella dysenteria)	MIC (Klebsiella pneumoniae)	MIC (Serratia marcescens)	MIC [4]	MIC (Mycobacterium sp. 607)	MIC (Pseudomonas aeruginosa)	MIC [5]	MIC (Streptococcus faecalis)	MIC (Streptococcus salivarius)	MIC (Corynebacterium xeriosis)	MIC (Mycobacterium phlei)	other results
COC1=C(C)C(=O)C2=C(C1=O)C1C3CC4=C(C(=O)C(OC)=C(C)C4=O)C(CNC(=O)C(C)N)N3C(C#N)C(C2)N1C (stereo not drawn) [Saframycin Y3]	1 µg/mL (≈ 1.77 µM)	0.1 µg/mL (≈ 0.177 µM)	1 µg/mL (≈ 1.77 µM)	0.1 µg/mL (≈ 0.177 µM)	1 µg/mL (≈ 1.77 µM)	10 µg/mL (≈ 17.7 µM)	50 µg/mL (≈ 88.7 µM)	50 µg/mL (≈ 88.7 µM)	50 µg/mL (≈ 88.7 µM)	10 µg/mL (≈ 17.7 µM)	10 µg/mL (≈ 17.7 µM)	50 µg/mL (≈ 88.7 µM)	< 1 ng/mL	> 100 µg/mL	> 100 µg/mL	< 1 ng/mL	10 µg/mL (≈ 17.7 µM)	50 µg/mL (≈ 88.7 µM)	1 µg/mL (≈ 1.77 µM)	50 µg/mL (≈ 88.7 µM)	MIC ([6]; IFM No. 2006, glucose (0.5%) agar, 37° C., 24 hours, read-out: MIC): 0.1 µg/mL (≈ 0.177 µM); MIC (Mycobacterium avium): 50 µg/mL (≈ 88.7 µM); MIC (Nocardia asteroides): 50 µg/mL (≈ 88.7 µM); MIC (Brucella abortus): 1 µg/mL (≈ 1.77 µM); MIC (Candida albicans 7N): > 100 µg/mL; MIC (Saccharomyces cerevisiae): > 100 µg/mL; MIC (Rhodotorula glutinus): > 100 µg/mL; MIC (Aspergillus niger): > 100 µg/mL; MIC (Aspergillus oryzae): > 100 µg/mL; MIC (Penicillium expansum): > 100 µg/mL; MIC [7]: > 100 µg/mL; IC50 (mouse leukaemia L 1210): 1.6 ng/mL (≈ 0.00284 µM); mice survived for 20 days or more ([8]; 5 micrograms/mouse/day): 60-70%; mice survived [8]: all mice survived; survival effect compared with critical level of effectiveness prescribed by the research institute (mouse leukemia L 1210): exceed the critical level of effectiveness; survival effect [T/C×100] (mouse leukemia L 1210): 130%
CCC(N)C(=O)NCC1C2=C(CC3C4C5=C(CC(C(C#N)N13)N4C)C(=O)C(C)=C(OC)C5=O)C(=O)C(C)=C(OC)C2=O (stereo not drawn) [Saframycin Yd-1]	1 µg/mL (≈ 1.73 µM)	1 µg/mL (≈ 1.73 µM)	10 µg/mL (≈ 17.3 µM)	0.1 µg/mL (≈ 0.173 µM)	1 µg/mL (≈ 1.73 µM)	1 µg/mL (≈ 1.73 µM)	50 µg/mL (≈ 86.6 µM)	50 µg/mL (≈ 86.6 µM)	50 µg/mL (≈ 86.6 µM)	10 µg/mL (≈ 17.3 µM)	10 µg/mL (≈ 17.3 µM)	50 µg/mL (≈ 86.6 µM)	< 1 ng/mL	> 100 µg/mL	> 100 µg/mL	< 1 ng/mL	10 µg/mL (≈ 17.3 µM)	50 µg/mL (≈ 86.6 µM)	1 µg/mL (≈ 1.73 µM)	50 µg/mL (≈ 86.6 µM)	MIC ([6]; 24 h): 0.01 µg/mL (≈ 0.0173 µM); MIC (Mycobacterium avium): 50 µg/mL (≈ 86.6 µM); MIC (Nocardia asteroides): 1 µg/mL (≈ 1.73 µM); MIC (Brucella abortus): 1 µg/mL (≈ 1.73 µM); MIC (Candida albicans 7N): > 100 µg/mL; MIC (Saccharomyces cerevisiae): > 100 µg/mL; MIC (Rhodotorula glutinus): > 100 µg/mL; MIC (Aspergillus niger): > 100 µg/mL; MIC (Aspergillus oryzae): > 100 µg/mL; MIC (Penicillium expansum): > 100 µg/mL; MIC [7]: > 100 µg/mL; IC50 (mouse leukaemia L 1210): 2 ng/mL (≈ 0.00346 µM); mice survived for 20 days or more ([8]; 4 micrograms/mouse/day): 60-70%; mice survived [8]: all mice survived; survival effect compared with critical level of effectiveness prescribed by the research institute (mouse leukemia L 1210): exceed the critical level of effectiveness; survival effect [T/C×100] (mouse leukemia L 1210): 140%; spread of metastasis in the lungs (Lewis lung cancer [9]): metastasis was scarcely observed; T/C×100 (Lewis lung cancer [10]): ≥ 140%; preventing effect against cancer metastasis as compared to saframycin A (Lewis lung cancer [10]): higher preventing effect
